The values below come from patent US6600037B1, “4,5-disubstituted-2-aminopyrimidines” (Celltech R & D Limited, priority 1999, dated 2003).

For orientation: melting point means the temperature, or range, at which the solid turns liquid.

Each structure is given as a SMILES string.

In the case of `CC(C)(N)c1ccc(-c2nc(Nc3ccc(CCO)cc3)ncc2Cl)cc1F` [Example 4, 4-[4-(1-Amino-1-methylethyl)-3-fluorophenyl]-5-chloro-N-[4-(2-hydroxyethyl)phenyl]pyrimidine-2-amine], the melting point was 172 to 176 °C.
To `C=CCOC(=O)NC(C)(C)c1ccc(-c2nc(Nc3ccc(CCn4ccnc4)cc3)ncc2Cl)cc1F` [Example 7, 4-[4-(1-Allyloxycarbonylamino-1-methylethyl)-3-fluorophenyl]-5-chloro-N-[4-(2-(imidazol-1-yl)ethyl)phenyl]pyrimidine-2-amine] belongs 88 °C; to `CC(C)(N)c1ccc(-c2nc(Nc3ccc(CCN4CCOCC4)cc3)ncc2Cl)cc1` [Example 9, 4-[4-(1-Amino-1-methylethyl)phenyl]-5-chloro-N-[4-(2-morpholinoethyl)phenyl]pyrimidine-2-amine], 166 to 173 °C; to `CC(C)(N)c1ccc(-c2nc(Nc3ccc(CCO)cc3)ncc2Cl)cc1` [Example 1, 4-[4-(1-Amino-1-methylethyl)phenyl]-5-chloro-N-[4-(2-hydroxyethyl)phenyl]pyrimidine-2-amine], 162 to 163 °C.
Then `C=CCOC(=O)NC(C)(C)c1ccc(-c2nc(Nc3ccc(CCn4ccnc4)cc3)ncc2Cl)cc1` [Example 5, 4-[4-(1-Allyloxycarbonylamino-1-methylethyl)phenyl]-5-chloro-N-[4-(2-(imidazol-1-yl)ethyl)phenyl]pyrimidine-2-amine], with 72 to 78 °C.
For the compound `CC(C)(N)c1ccc(-c2nc(Nc3ccc(-n4ccnc4)cc3)ncc2Cl)cc1` [Example 3, 4-[4-(1-Amino-1-methylethyl)phenyl]-5-chloro-N-[4-(1-imidazolyl)phenyl]pyrimidine-2-amine], the melting point lay within 199 to 201 °C.
To `CC(C)(N)c1ccc(-c2nc(Nc3cccc(CCO)c3)ncc2Cl)cc1` [Example 2, 4-[4-(1-Amino-1-methylethyl)phenyl]-5-chloro-N-[3-(2-hydroxyethyl)phenyl]pyrimidine-2-amine] belongs 184 to 185 °C.
Then `CC(C)(N)c1ccc(-c2nc(Nc3ccc(CCn4ccnc4)cc3)ncc2Cl)cc1F` [Example 10, 4-[4-(1-Amino-1-methylethyl)-3-fluorophenyl]-5-chloro-N-[4-(2-(imidazol-1-yl)ethyl)phenyl]pyrimidine 2-amine], with 112 to 120 °C.
